Laboratory results taken from patent publication US11840686B2, “Modulation of prekallikrein (PKK) expression” (Ionis Pharmaceuticals, Inc., priority 2013, dated 2023).
Strand notation (5' to 3'): a small letter for the sugar, then the base; units joined by * are phosphorothioate-linked, units joined directly phosphodiester-linked; [ ] holds rarer units or linkages, { } end groups; capitals alone tell only the bases. e = 2'-O-(2-methoxyethyl) (MOE); [5mC] = 5-methylcytosine; d = 2'-deoxy (DNA)

Assays:
human PKK mRNA [1] = assay: Antisense inhibition of human PKK mRNA in HepaRG cells, 5,000 nM (Example 2); assay type: cell-based; conditions: Table 13; human PKK mRNA in HepaRG cells; 5-10-5 gapmers
How it was run: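 Chimeric MOE gapmers with full phosphorothioate backbones were tested once at 5,000 nM in electroporated HepaRG cells. After about 24 hours, quantitative PCR measured PKK mRNA relative to untreated control cells.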

human PKK mRNA [2] = assay: Dose-dependent antisense inhibition of human PKK in HepaRG cells, 0.19-5.00 uM (Example 5); assay type: cell-based; conditions: for percent inhibition of PKK mRNA, 0.19 μM: 0.19 μM antisense oligonucleotide; for percent inhibition of PKK mRNA, 0.56 μM: 0.56 μM antisense oligonucleotide; for percent inhibition of PKK mRNA, 1.67 μM: 1.67 μM antisense oligonucleotide; for percent inhibition of PKK mRNA, 5.00 μM: 5.00 μM antisense oligonucleotide
Procedure: Cells were plated at a density of 20,000 cells per well and transfected using electroporation with 0.19 μM, 0.56 μM, 1.67 μM, and 5.00 μM concentrations of antisense oligonucleotide. After a treatment period of approximately 16 hours, RNA was isolated from the cells and PKK mRNA levels were measured by quantitative real-time PCR. Human PKK primer probe set RTS3454 was used to measure mRNA levels. PKK mRNA levels were adjusted according to total RNA content, as measured by RIBOGREEN®. The antisense oligonucleotides were tested in a series of experiments that had similar culture conditions.
The half maximal inhibitory concentration (IC50) of each oligonucleotide is also presented.

[3] = HepaRG cells, electroporation, approximately 16 hours, Table 41
[4] = 4 point dose response, HepaRG cells, Table 41
[5] = Table 34, HepaRG, electroporation, ~16 h
[6] = Table 34, PKK mRNA, HepaRG, electroporation, ~16 h
[7] = HepaRG cells, electroporation, approximately 16 hours, Table 37
[8] = 4 point dose response, HepaRG cells, Table 37
[9] = HepaRG cells, electroporation, approximately 16 hours, Table 36
[10] = HepaRG cells, electroporation, approximately 16 hours, Table 38
[11] = HepaRG cells, electroporation, approximately 16 hours, Table 39

546827 (e[5mC]*eA*eG*eT*eA*dT*d[5mC]*dA*d[5mC]*dT*dG*dT*dA*d[5mC]*dT*eA*eG*eT*eT*eT; antisense) [compound 546827]
% inhibition (human PKK mRNA [1]): 98%
percent inhibition of PKK at 5.00 μM (human PKK mRNA [2]; [3]): 96%
percent inhibition of PKK at 0.19 0μM (human PKK mRNA [2]; [3]): 23%
percent inhibition of PKK at 0.56 0μM (human PKK mRNA [2]; [3]): 74%
percent inhibition of PKK at 1.67 1μM (human PKK mRNA [2]; [3]): 98%
IC50 (human PKK mRNA [2]; [4]): 400 nM
percent inhibition of PKK at 0.19 μM (human PKK mRNA [2]; [5]): 32%
percent inhibition of PKK at 0.56 μM (human PKK mRNA [2]; [5]): 70%
percent inhibition of PKK at 1.67 μM (human PKK mRNA [2]; [5]): 84%
percent inhibition of PKK at 5.00 μM (human PKK mRNA [2]; [5]): 90%
IC50 (human PKK mRNA [2]; [6]): 300 nM

546829 (eA*eA*e[5mC]*eA*eG*dT*dA*dT*d[5mC]*dA*d[5mC]*dT*dG*dT*dA*e[5mC]*eT*eA*eG*eT; antisense) [compound 546829]
% inhibition (human PKK mRNA [1]): 94%
percent inhibition of PKK at 0.19 μM (human PKK mRNA [2]; [5]): 3%
percent inhibition of PKK at 0.56 μM (human PKK mRNA [2]; [5]): 30%
percent inhibition of PKK at 1.67 μM (human PKK mRNA [2]; [5]): 73%
percent inhibition of PKK at 5.00 μM (human PKK mRNA [2]; [5]): 88%
IC50 (human PKK mRNA [2]; [6]): 1000 nM

546832 (e[5mC]*eT*e[5mC]*eT*eA*dA*d[5mC]*dA*dG*dT*dA*dT*d[5mC]*dA*d[5mC]*eT*eG*eT*eA*e[5mC]; antisense) [compound 546832]
% inhibition (human PKK mRNA [1]): 88%
percent inhibition of PKK at 0.19 μM (human PKK mRNA [2]; [7]): 19%
percent inhibition of PKK at 0.56 μM (human PKK mRNA [2]; [7]): 38%
percent inhibition of PKK at 1.67 μM (human PKK mRNA [2]; [7]): 70%
percent inhibition of PKK at 5.00 μM (human PKK mRNA [2]; [7]): 95%
IC50 (human PKK mRNA [2]; [8]): 800 nM
percent inhibition of PKK mRNA, 0.19 μM (human PKK mRNA [2]; HepaRG cells): 36%
percent inhibition of PKK mRNA, 0.56 μM (human PKK mRNA [2]; HepaRG cells): 49%
percent inhibition of PKK mRNA, 1.67 μM (human PKK mRNA [2]; HepaRG cells): 85%
percent inhibition of PKK mRNA, 5.00 μM (human PKK mRNA [2]; HepaRG cells): 97%
IC50 (human PKK mRNA [2]; HepaRG cells, 0.19-5.00 μM): 400 nM

546833 (eA*e[5mC]*eT*e[5mC]*eT*dA*dA*d[5mC]*dA*dG*dT*dA*dT*d[5mC]*dA*e[5mC]*eT*eG*eT*eA; antisense) [compound 546833]
% inhibition (human PKK mRNA [1]): 90%
percent inhibition of PKK at 0.19 μM (human PKK mRNA [2]; [9]): 8%
percent inhibition of PKK at 0.56 μM (human PKK mRNA [2]; [9]): 33%
percent inhibition of PKK at 1.67 μM (human PKK mRNA [2]; [9]): 74%
percent inhibition of PKK at 5.00 μM (human PKK mRNA [2]; [9]): 94%
IC50 (human PKK mRNA [2]; 4 point dose response, HepaRG cells, Table 36): 900 nM

546834 (eA*eA*e[5mC]*eT*e[5mC]*dT*dA*dA*d[5mC]*dA*dG*dT*dA*dT*d[5mC]*eA*e[5mC]*eT*eG*eT; antisense) [compound 546834]
% inhibition (human PKK mRNA [1]): 86%
percent inhibition of PKK at 0.19 μM (human PKK mRNA [2]; [10]): 1%
percent inhibition of PKK at 0.56 μM (human PKK mRNA [2]; [10]): 0%
percent inhibition of PKK at 1.67 μM (human PKK mRNA [2]; [10]): 30%
percent inhibition of PKK at 5.00 μM (human PKK mRNA [2]; [10]): 83%
IC50 (human PKK mRNA [2]; 4 point dose response, HepaRG cells, Table 38): 2300 nM

546835 (eT*eA*eA*e[5mC]*eT*d[5mC]*dT*dA*dA*d[5mC]*dA*dG*dT*dA*dT*e[5mC]*eA*e[5mC]*eT*eG; antisense) [compound 546835]
% inhibition (human PKK mRNA [1]): 86%
percent inhibition of PKK at 0.19 μM (human PKK mRNA [2]; [11]): 9%
percent inhibition of PKK at 0.56 μM (human PKK mRNA [2]; [11]): 35%
percent inhibition of PKK at 1.67 μM (human PKK mRNA [2]; [11]): 68%
percent inhibition of PKK at 5.00 μM (human PKK mRNA [2]; [11]): 93%
IC50 (human PKK mRNA [2]; 4 point dose response, HepaRG cells, Table 39): 900 nM

546846 (e[5mC]*eT*eG*eT*e[5mC]*d[5mC]*dT*dA*dT*dA*dT*d[5mC]*dA*d[5mC]*dT*eG*eT*e[5mC]*e[5mC]*eT; antisense) [compound 546846]
% inhibition (human PKK mRNA [1]): 95%
percent inhibition of PKK at 0.19 0μM (human PKK mRNA [2]; [3]): 26%
percent inhibition of PKK at 0.56 0μM (human PKK mRNA [2]; [3]): 49%
percent inhibition of PKK at 1.67 1μM (human PKK mRNA [2]; [3]): 85%
IC50 (human PKK mRNA [2]; [4]): 500 nM
percent inhibition of PKK at 0.19 μM (human PKK mRNA [2]; [5]): 36%
percent inhibition of PKK at 0.56 μM (human PKK mRNA [2]; [5]): 45%
percent inhibition of PKK at 1.67 μM (human PKK mRNA [2]; [5]): 71%
percent inhibition of PKK at 5.00 μM (human PKK mRNA [2]; [5]): 82%
IC50 (human PKK mRNA [2]; [6]): 500 nM

546847 (eA*e[5mC]*eT*eG*eT*d[5mC]*d[5mC]*dT*dA*dT*dA*dT*d[5mC]*dA*d[5mC]*eT*eG*eT*e[5mC]*e[5mC]; antisense) [compound 546847]
% inhibition (human PKK mRNA [1]): 88%
percent inhibition of PKK at 0.19 μM (human PKK mRNA [2]; [7]): 39%
percent inhibition of PKK at 0.56 μM (human PKK mRNA [2]; [7]): 57%
percent inhibition of PKK at 1.67 μM (human PKK mRNA [2]; [7]): 75%
percent inhibition of PKK at 5.00 μM (human PKK mRNA [2]; [7]): 89%
IC50 (human PKK mRNA [2]; [8]): 400 nM
percent inhibition of PKK mRNA, 0.19 μM (human PKK mRNA [2]; HepaRG cells): 14%
percent inhibition of PKK mRNA, 0.56 μM (human PKK mRNA [2]; HepaRG cells): 44%
percent inhibition of PKK mRNA, 1.67 μM (human PKK mRNA [2]; HepaRG cells): 83%
percent inhibition of PKK mRNA, 5.00 μM (human PKK mRNA [2]; HepaRG cells): 95%
IC50 (human PKK mRNA [2]; HepaRG cells, 0.19-5.00 μM): 700 nM
